# Earlier results, collected in patent publication US20230332232A1, “COMPOSITIONS AND METHODS FOR DIAGNOSING AND TREATING A DYSTONIA” (Duke University, priority 2020, published 2023).
# Legend:
# [1] = test system: ΔE Torsin1a; settings: ΔE Torsin1a abnormal punctate pattern; cited from earlier work
# [2] = test system: DYT1 patient-derived fibroblasts; settings: cited from earlier work
compound,measurement,setting,value
"O=C(O)CCCc1ccccc1 [PBA, phenylbutyric acid]",punctate pathology,[1],significantly reduced punctate pathology
same,indicators of UPR activation,[2],reduces indicators of UPR activation
